Assay results reported in ChEMBL document CHEMBL1136187, “Quaternary ammonium 3-(aminoethoxy)pyridines as antinociceptive agents” (Bioorg Med Chem Lett, 2003).

Experiments:
[1] = target: Neuronal acetylcholine receptor; assay: Binding affinity towards nicotinic acetylcholine receptor (nACh) using [3H](-)-nicotine as radioligand in rat brain; assay type: tissue-based
Mus musculus [2] = assay: Antinociceptive effect upon intrathecal administration in mouse using tail-flick assay; 16-23; assay type: functional
Mus musculus [3] = assay: Antinociceptive effect upon subcutaneous administration in mice using tail-flick assay; 0.9-2.2; assay type: functional; details: sc
Mus musculus [4] = assay: Antinociceptive effect upon subcutaneous administration in mice using tail-flick assay; 12-18; assay type: functional; details: sc
Mus musculus [5] = assay: Antinociceptive response as maximal possible effect upon subcutaneous administration in mice at the dose of 10 mg/kg; assay type: functional
Mus musculus [6] = assay: Antinociceptive response as maximal possible effect upon intrathecal administration in mouse at the dose of 15 mg/kg; assay type: functional
Mus musculus [7] = assay: Antinociceptive response as maximal possible effect upon intrathecal administration in mouse at the dose of 20 mg/kg; assay type: functional
Mus musculus [8] = assay: Antinociceptive response as maximal possible effect upon subcutaneous administration in mice at the dose of 15 mg/kg; assay type: functional
Mus musculus [9] = assay: Antinociceptive response as maximal possible effect upon subcutaneous administration in mice at the dose of 20 mg/kg; assay type: functional
Mus musculus [10] = assay: Antinociceptive effect upon intrathecal administration in mouse using tail-flick assay; 10-19; assay type: functional
Mus musculus [11] = species on record: Mus musculus; assay: animal or person; details: Tail, sc
Mus musculus [12] = assay: Antinociceptive response as maximal possible effect upon intrathecal administration in mouse at the dose of 25 mg/kg; assay type: functional

C[N+](C)(C)CCOc1cccnc1.[Cl-] gave a Ki [1] of 0.5 nM, an ED50 (Mus musculus [2]) of 19 ug mouse-1 and an ED50 (Mus musculus [3]) of 1.4 mg/kg.

CN(C)CCOc1cccnc1.O=C(O)C(=O)O was tested, and the ED50 (Mus musculus [4]) was 15 mg/kg.

C[N+](C)(C)CCOc1ccc(Cl)nc1.[I-] showed a Ki [1] of 1.3 nM, an MPE (Mus musculus [5]) of 5% and an MPE (Mus musculus [6]) of 4%.

With CC(C)[N+](C)(C)CCOc1cccnc1.[Cl-] the MPE (Mus musculus [7]) was 2%, the Ki [1] was 13.8 nM and the MPE (Mus musculus [8]) was 3%.

CC[N+](C)(C)CCOc1cccnc1.[Cl-] was tested, and the MPE (Mus musculus [9]) was 5%, the Ki [1] was 2.2 nM and the ED50 (Mus musculus [10]) was 14 ug mouse-1.

With CN1CCC[C@H]1c1cccnc1 [NICOTINE] the ED50 (Mus musculus [11]) was 1.5 mg/kg.

CC[N+](C)(C)CCOc1ccc(Br)nc1.[I-] was tested, and the Ki [1] was 5 nM, the MPE (Mus musculus [12]) was 0% and the MPE (Mus musculus [5]) was 0%.

Molecule CCC[N+](C)(C)CCOc1cccnc1.[Cl-] has an MPE (Mus musculus [7]) of 3%, a Ki [1] of 29.2 nM and an MPE (Mus musculus [8]) of 1%.

Molecule COc1ccc(OCC[N+](C)(C)C)cn1 has a Ki [1] of 37 nM.
